In BindingDB's records for doi:10.7270/Q2N58JS6 (University of Pittsburgh, 2007):

These compounds were tested against Serine/threonine-protein kinase PLK1 (Homo sapiens, UniProt P53350) (assay: redox cycling hydrogen peroxide generation, dose response, artefact control for Plk1 PBD inhibitor project, biochemical, 1 mM DTT (AID 936)).
Sequence of Serine/threonine-protein kinase PLK1 (P53350 whole entry): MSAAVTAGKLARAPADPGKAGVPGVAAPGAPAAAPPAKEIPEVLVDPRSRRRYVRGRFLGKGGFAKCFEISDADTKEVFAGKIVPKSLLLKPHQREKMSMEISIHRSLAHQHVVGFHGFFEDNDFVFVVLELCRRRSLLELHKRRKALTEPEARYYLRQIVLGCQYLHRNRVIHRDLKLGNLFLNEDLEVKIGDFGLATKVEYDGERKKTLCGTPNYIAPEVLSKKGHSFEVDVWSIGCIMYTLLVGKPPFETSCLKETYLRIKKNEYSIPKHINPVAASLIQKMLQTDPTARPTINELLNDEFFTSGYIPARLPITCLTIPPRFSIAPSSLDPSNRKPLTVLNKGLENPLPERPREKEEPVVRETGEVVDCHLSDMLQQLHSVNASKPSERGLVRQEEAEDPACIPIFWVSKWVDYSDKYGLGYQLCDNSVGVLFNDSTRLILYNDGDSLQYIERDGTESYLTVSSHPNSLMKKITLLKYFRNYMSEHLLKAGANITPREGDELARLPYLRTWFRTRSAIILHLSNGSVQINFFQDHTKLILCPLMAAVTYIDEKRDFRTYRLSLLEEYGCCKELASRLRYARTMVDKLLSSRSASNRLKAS

| EC50 | SMILES |
| --- | --- |
| > 50 µM | O=C1C(=C2C(=O)c3ccccc3C2=O)Nc2ccccc21 [MLS000071738] |
| > 50 µM | CCC(=O)N1CCN(c2ccc(NC(=O)c3ccc4c(c3)OCO4)cc2)CC1 [Benzo[1,3]dioxole-5-carboxylic acid [4-(4-propionyl-piperazin-1-yl)-phenyl]-amide] |
| > 50 µM | CCn1c(SCC(N)=O)nnc1-c1ccc(S(=O)(=O)N2CCN(C)CC2)cc1 [2-[[4-ethyl-5-[4-(4-methylpiperazin-1-yl)sulfonylphenyl]-1,2,4-triazol-3-yl]sulfanyl]acetamide] |
| > 50 µM | CC(=O)N1CCc2cc(Br)cc(S(=O)(=O)NCc3ccccn3)c21 [1-acetyl-5-bromo-N-(2-pyridinylmethyl)-2,3-dihydroindole-7-sulfonamide] |
| > 50 µM | CCOC(=O)Cc1csc(NC(=O)CSc2nnc(-c3ccc(F)cc3)o2)n1 [(2-{2-[5-(4-Fluoro-phenyl)-[1,3,4]oxadiazol-2-ylsulfanyl]-acetylamino}-thiazol-4-yl)-acetic acid ethyl ester] |
| > 50 µM | Cc1oc2c(c1C(=O)c1ccccc1)C(=O)C(=O)c1ccccc1-2 [2-methyl-3-(phenylcarbonyl)benzo[g][1]benzofuran-4,5-dione] |
| > 50 µM | O=C(Nc1ccccn1)C1CCN(S(=O)(=O)c2cccc3nonc23)CC1 [1-(2,1,3-benzoxadiazol-4-ylsulfonyl)-N-(2-pyridinyl)-4-piperidinecarboxamide] |
| > 50 µM | Cc1cc(C)n(-c2nnc3n2N=C(c2ccccc2)CS3)n1 [3-(3,5-dimethyl-1-pyrazolyl)-6-phenyl-7H-[1,2,4]triazolo[3,4-b][1,3,4]thiadiazine] |
| > 50 µM | Cc1nn(C(C)C(=O)N2CCCCC2)c(=O)c2c1sc1ccccc12 (centres undefined) [2-(2-keto-1-methyl-2-piperidino-ethyl)-4-methyl-benzothiopheno[2,3-d]pyridazin-1-one] |
| > 50 µM | Nc1cc2nsnc2cc1Br [(6-bromopiazthiol-5-yl)amine] |
| > 50 µM | Cn1c(-c2cc3ccc(OC(=O)C(C)(C)C)cc3oc2=O)nc2ccccc21 [2,2-Dimethyl-propionic acid 3-(1-methyl-1H-benzoimidazol-2-yl)-2-oxo-2H-chromen-7-yl ester] |
| > 50 µM | Cc1ccc2cc(C(c3nnnn3C3CCCC3)N3CCN(c4ccccc4)CC3)c(=O)[nH]c2c1 (centres undefined) [3-[(1-cyclopentyltetrazol-5-yl)-(4-phenylpiperazin-1-yl)methyl]-7-methyl-1H-quinolin-2-one] |
| > 50 µM | C=CCSc1nccc(-c2cc(Cl)sc2Cl)n1 [2-(allylsulfanyl)-4-(2,5-dichloro-3-thienyl)pyrimidine] |
| > 50 µM | Nc1cc(-c2ccc(Br)cc2)nn1S(=O)(=O)c1cccc2nsnc12 [2-(2,1,3-benzothiadiazol-4-ylsulfonyl)-5-(4-bromophenyl)-3-pyrazolamine] |
